In ChEMBL document CHEMBL1275594, “Cellular pharmacokinetics of the novel biaryloxazolidinone radezolid in phagocytic cells: studies with macrophages and polymorphonuclear neutrophils” (Antimicrob Agents Chemother, 2010):
Values belong to the molecule of their own block, whether it stands above or below them.

How the values were obtained:
THP-1 [1] = test: Drug level in human THP1 cells at 10 mg/L at pH =< 6.5; type: ADME, cell-based
THP-1 [2] = test: Drug level in human THP1 cells at 10 mg/L after 2 hrs in presence 10 uM efflux pump inhibitor verapamil relative to control; type: ADME, cell-based; conditions: thp-1, 2 h
THP-1 [3] = test: Drug level in human THP1 cells at 10 mg/L after 2 hrs in presence 250 uM efflux pump inhibitor gemfibrozil relative to control; type: ADME, cell-based; conditions: thp-1, 2 h
THP-1 [4] = test: Drug level in human THP1 cells at 50 mg/L after 2 hrs in presence of 50 uM proton inophore monesin relative to control; type: ADME, cell-based; conditions: thp-1, 2 h
THP-1 [5] = test: Drug level in human THP1 cells at 250 mg/L after 2 hrs in presence of 50 uM proton inophore monesin relative to control; type: ADME, cell-based; conditions: thp-1, 2 h
THP-1 [6] = test: Drug level in human THP1 cells at 10 mg/L after 2 hrs in presence of 50 uM proton inophore monesin relative to control; type: ADME, cell-based; conditions: thp-1, 2 h
THP-1 [7] = test: Drug level in human THP1 cells at 50 mg/L after 30 mins at pH 6; type: ADME, cell-based; conditions: thp-1, pH 6, 0.5 h
THP-1 [8] = test: Drug level in human THP1 cells at 250 mg/L after 30 mins at pH 6; type: ADME, cell-based; conditions: thp-1, pH 6, 0.5 h
[9] = Half life in human THP1 cells at 4 mg/L; type: ADME, cell-based; conditions: THP-1 cells
[10] = Half life in mouse J774 cells at 4 mg/L; type: ADME, cell-based
[11] = Half life in human PMNC at 4 mg/L; type: ADME
THP-1 [12] = test: Drug level in human THP1 cells at 50 mg/L at pH < 7 in presence of 50 uM proton inophore monesin; type: ADME, cell-based
THP-1 [13] = test: Drug level in human THP1 cells at 50 mg/L at pH 6.5; type: ADME, cell-based; conditions: thp-1, pH 6.5
J774 [14] = test: Drug level in mouse J774 cells at 50 mg/L at pH 6.5; type: ADME, cell-based; conditions: j774, pH 6.5
J774 [15] = test: Drug level in mouse J774 cells at 50 mg/L in presence of 50 uM proton inophore monesin relative to control; type: ADME, cell-based
THP-1 [16] = test: Ratio of drug level for cellular to extracellular region of human THP-1 cells at 10 to 50 ug/ml; type: ADME, cell-based
[17] = Ratio of drug level for cellular to extracellular region of human PMNC cells at 10 to 50 ug/ml; type: ADME, cell-based
THP-1 [18] = test: Drug level in human THP1 cells at 50 mg/L after 2 hrs in presence of < 10% fetal calf serum relative to control; type: ADME, cell-based; conditions: thp-1, 2 h
J774 [19] = test: Drug level in mouse J774 cells at 50 mg/L after 2 hrs in presence of < 10% fetal calf serum relative to control; type: ADME, cell-based; conditions: j774, 2 h
THP-1 [20] = test: Drug level in human THP1 cells at 50 mg/L after 2 hrs in presence 60 mM deoxyglucose and 5 mM NaN3 relative to control; type: ADME, cell-based; conditions: thp-1, 2 h
THP-1 [21] = test: Drug level in human THP1 cells at 50 mg/L after 2 hrs in presence 10 uM efflux pump inhibitor verapamil relative to control; type: ADME, cell-based; conditions: thp-1, 2 h
THP-1 [22] = test: Drug level in human THP1 cells at 50 mg/L after 2 hrs in presence 250 uM efflux pump inhibitor gemfibrozil relative to control; type: ADME, cell-based; conditions: thp-1, 2 h

- Drug uptake (THP-1 [1]): 10%
- Ratio (THP-1 [2]): 1.7
- Ratio (THP-1 [3]): 1.7
SMILES: CC[C@H]1OC(=O)[C@H](C)[C@@H](O[C@H]2C[C@@](C)(OC)[C@@H](O)[C@H](C)O2)[C@H](C)[C@@H](O[C@@H]2O[C@H](C)C[C@H](N(C)C)[C@H]2O)[C@](C)(O)C[C@@H](C)CN(C)[C@H](C)[C@@H](O)[C@]1(C)O [AZITHROMYCIN]

- Drug uptake (THP-1 [4]): 20%
- Drug uptake (THP-1 [5]): 25%
- Drug uptake (THP-1 [6]): 10%
- Drug uptake (THP-1 [7]): 25%
- Drug uptake (THP-1 [8]): 25%
SMILES: CC(=O)NC[C@H]1CN(c2ccc(N3CCOCC3)c(F)c2)C(=O)O1 [LINEZOLID]

- half-life at 4 mg/L [9]: 6 min
- half-life at 4 mg/L [10]: 6 min
- half-life at 4 mg/L [11]: 6 min
- Drug uptake (THP-1 [4]): 20%
- Drug uptake (THP-1 [5]): 25%
- Drug uptake (THP-1 [6]): 10%
- Drug uptake (THP-1 [7]): 25%
- Drug uptake (THP-1 [8]): 25%
- Drug uptake (THP-1 [12]): Active
- Drug uptake (THP-1 [13]): Active
- Drug uptake (J774 [14]): Active
- Drug uptake (J774 [15]): 30%
- Ratio (THP-1 [16]): 8.5
- Ratio [17]: 8.5
- Drug uptake (THP-1 [18]): Active
- Drug uptake (J774 [19]): Active
- Drug uptake (THP-1 [20]): Active
- Drug uptake (THP-1 [21]): Active
- Drug uptake (THP-1 [22]): Active
SMILES: CC(=O)NC[C@H]1CN(c2ccc(-c3ccc(CNCc4cnn[nH]4)cc3)c(F)c2)C(=O)O1 [RADEZOLID]
